# According to patent US6228841A, “Peptide derivatives” (Daiichi Pharmaceutical Co., Ltd., priority 1995, dated 2001):
# Where two headings read alike, the source gives them in different places.
# Tested on: mice
# Assay: analgesic activity by pressure stimulation method (base of tail)
# Type: in vivo
# Conditions: Mus musculus, read-out: ED50 (dose providing 50% of % of MPE, analgesic activity)
# Experimental: The analgesic activities of peptide derivatives of the present invention were evaluated by pressure stimulation method as follows. Mice were subjected to pressure stimulation at the bases of their tails at a rate of 10 mmHg/second. […] For the experiments, mice that were preliminary determined to respond to a pressure of 40-50 mmHg were used. The maximum stimulating pressure was 100 mmHg. Analgesic activity was calculated as percent of maximum possible effect (% of MPE) according to the following equation: [formula]
# wherein Po is the pain reaction threshold before the administration of a drug; Pt is the pain reaction threshold "t" minutes after the administration of the drug; and Pc is the maximum stimulating pressure. According to a dose-response curve, ED50 value was determined as a dose of drug providing 50% of % of MEP and used for comparison of analgesic activity of drugs.
smiles,measurement,setting,value
CN1CC[C@]23c4c5ccc(O)c4O[C@H]2[C@@H](O)C=C[C@H]3[C@H]1C5 [morphine],ED50,oral administration,29.6 mg/kg
same,ED50,"sc, subcutaneous administration (skin in the backs)",4.6 mg/kg
